Measured values reported in patent US20250340551A1, “SMALL MOLECULE MODULATORS OF STAT6” (Gilead Sciences, Inc., priority 2024, published 2025).

Biological target: human STAT6 (Homo sapiens (Human), UniProt P42226)
Experiment: Surface plasmon resonance assay (Biacore 8K, binding to immobilized STAT6)
Details: human STAT6 aa122-658, N-terminal His-tag, CM5 chip, 25° C.; geometric mean; read-out: STAT6 SPR Kd
How it was run: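 Run at 25° C with His-tagged STAT6 aa122-658 (insect-cell expressed) amine-coupled to a CM5 chip, reference-subtracted, in PBS-P+ with 2% DMSO. Multi-cycle kinetics: 60 sec. contact, up to 300 sec. dissociation. Affinity fitted from late report-point binding isotherms, with Rmax both free and fixed to theoretical 1:1.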

human STAT6, sequence (P42226 122-658): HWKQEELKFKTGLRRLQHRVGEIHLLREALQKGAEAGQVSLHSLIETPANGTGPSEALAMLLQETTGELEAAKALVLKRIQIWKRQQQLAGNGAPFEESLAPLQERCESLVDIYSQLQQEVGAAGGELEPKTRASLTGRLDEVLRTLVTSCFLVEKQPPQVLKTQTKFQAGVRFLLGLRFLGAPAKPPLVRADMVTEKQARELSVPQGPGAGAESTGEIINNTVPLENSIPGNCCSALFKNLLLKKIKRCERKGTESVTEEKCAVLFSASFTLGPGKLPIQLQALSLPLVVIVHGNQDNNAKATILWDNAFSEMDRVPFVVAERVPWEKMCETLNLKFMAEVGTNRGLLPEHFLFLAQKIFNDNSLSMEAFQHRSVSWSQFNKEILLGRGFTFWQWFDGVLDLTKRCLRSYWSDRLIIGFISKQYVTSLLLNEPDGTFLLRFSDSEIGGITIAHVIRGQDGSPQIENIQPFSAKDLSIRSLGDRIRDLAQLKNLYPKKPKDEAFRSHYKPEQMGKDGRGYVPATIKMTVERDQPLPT

| Kd | SMILES |
| --- | --- |
| 0.475 µM | CC(=O)Nc1ccc(-c2ccnc3c2cc(CN2CCC(c4ccc(C(=O)N(C)C)cc4)CC2)n3C)c(C)n1 [Example 1k40, 4-[1-[[4-(6-Acetamido-2-methyl-3-pyridyl)-1-methyl-pyrrolo[2,3-b]pyridin-2-yl]methyl]-4-piperidyl]-N,N-dimethyl-benzamide] |
| 0.133 µM | CNc1ccc(-c2ccnc3c2cc(CN2CC=C(c4ccc(C(=O)N(C)C)cn4)CC2)n3C)cn1 [Example 1s11, N,N-Dimethyl-6-[1-[[1-methyl-4-[6-(methylamino)-3-pyridyl]pyrrolo[2,3-b]pyridin-2-yl]methyl]-3,6-dihydro-2H-pyridin-4-yl]pyridine-3-carboxamide] |
| 0.0277 µM | [2H]C([2H])([2H])N(C(=O)c1ccc(C2CCN(Cc3cc4c(-c5ccc(NC)nc5)ccnc4n3C)CC2)cc1)C([2H])([2H])[2H] [Example 1k38, 4-[1-[[1-Methyl-4-[6-(methylamino)-3-pyridyl]pyrrolo[2,3-b]pyridin-2-yl]methyl]-4-piperidyl]-N,N-bis(trideuteriomethyl)benzamide] |
| 0.0686 µM | C[C@H]1CN(c2ccc(C(=O)N(C)C)cc2)CCN1Cc1cc2c(-c3ccc(N)nc3)ccnc2n1C [Example 1n5, 4-[(3S)-4-[[4-(6-Amino-3-pyridyl)-1-methyl-pyrrolo[2,3-b]pyridin-2-yl]methyl]-3-methyl-piperazin-1-yl]-N,N-dimethyl-benzamide] |
| 0.0616 µM | CNc1ccc(-c2ccnc3c2cc(CN2CCC(F)(c4ccc(C(=O)N(C)C)cc4)CC2)n3C)cn1 [Example 1s26, 4-[4-Fluoro-1-[[1-methyl-4-[6-(methylamino)-3-pyridyl]pyrrolo[2,3-b]pyridin-2-yl]methyl]-4-piperidyl]-N,N-dimethyl-benzamide] |
| 0.0751 µM | CN(C)C(=O)c1ccc(C2CCN(Cc3cc4c(-c5ncc(N)cc5F)ccnc4n3C)CC2)cc1 [Example 1k72, 4-[1-[[4-(5-Amino-3-fluoro-2-pyridyl)-1-methyl-pyrrolo[2,3-b]pyridin-2-yl]methyl]-4-piperidyl]-N,N-dimethyl-benzamide] |
| 0.0706 µM | CNc1ccc(-c2ccnc3c2cc(CN2CCN(c4ccc(C(=O)N(C)C)cc4)CC2=O)n3C)cn1 [Example 1s5, N,N-Dimethyl-4-[4-[[1-methyl-4-[6-(methylamino)-3-pyridyl]pyrrolo[2,3-b]pyridin-2-yl]methyl]-3-oxo-piperazin-1-yl]benzamide] |
| 0.0523 µM | CN(C)C(=O)c1ccc(C2CCN(Cc3cc4c(-c5ccc(N)c(Cl)n5)ccnc4n3C)CC2)cc1 [Example 1k77, 4-(1-((4-(5-Amino-6-chloropyridin-2-yl)-1-methyl-1H-pyrrolo[2,3-b]pyridin-2-yl)methyl)piperidin-4-yl)-N,N-dimethylbenzamide] |
| 0.148 µM | CN(C)C(=O)c1ccc(C2CCN(Cc3cc4c(-c5cnc(N)cc5CO)ccnc4n3C)CC2)cc1 [Example 1k49, 4-[1-[[4-[6-Amino-4-(hydroxymethyl)-3-pyridyl]-1-methyl-pyrrolo[2,3-b]pyridin-2-yl]methyl]-4-piperidyl]-N,N-dimethyl-benzamide] |
| 0.0521 µM | CN(C)C(=O)c1ccc(C2CCN(Cc3cc4c(-c5ccc(N)c(C#N)c5)ccnc4n3C)CC2)cc1 [Example 1k80, 4-(1-((4-(4-Amino-3-cyanophenyl)-1-methyl-1H-pyrrolo[2,3-b]pyridin-2-yl)methyl)piperidin-4-yl)-N,N-dimethylbenzamide] |
| 0.147 µM | CNc1ccc(-c2ccnc3c2cc(CN2CC[C@H](c4ccc(C(=O)N(C)C)cc4)C[C@@H]2C)n3C)nc1 [Example 1o27, N,N-dimethyl-4-((2S,4S)-2-methyl-1-((1-methyl-4-(5-(methylamino)-pyridin-2-yl)-1H-pyrrolo[2,3-b]pyridin-2-yl)methyl)piperidin-4-yl)benzamide] |
| 1.23 µM | Cc1cc(N)cc(C)c1-c1ccnc2c1cc(CN1CCC(c3ccc(C(=O)N(C)C)cc3)CC1)n2C [Example 1k32, 4-[1-[[4-(4-Amino-2,6-dimethyl-phenyl)-1-methyl-pyrrolo[2,3-b]pyridin-2-yl]methyl]-4-piperidyl]-N,N-dimethyl-benzamide] |
| 0.0519 µM | [2H]C([2H])([2H])N(C(=O)c1ccc(C2CCN(Cc3cc4c(-c5ccc(NC)cn5)ccnc4n3C)CC2)cc1)C([2H])([2H])[2H] [Example 1k70, 4-[1-[[1-methyl-4-[5-(methylamino)-2-pyridyl]pyrrolo[2,3-b]pyridin-2-yl]methyl]-4-piperidyl]-N,N-bis(trideuteriomethyl)benzamide] |

Further lines, the molecule ahead of its results:

| SMILES | Kd |
| --- | --- |
| [2H]C([2H])([2H])N(C(=O)c1ccc(C2=CCN(C(C)c3cc4c(-c5ccc(N)nc5C#N)ccnc4n3C)CC2)cc1)C([2H])([2H])[2H] (stereo in doubt) [Example 1af24, (S)-4-(1-(1-(4-(6-amino-2-cyanopyridin-3-yl)-1-methyl-1H-pyrrolo[2,3-b]pyridin-2-yl)ethyl)-1,2,3,6-tetrahydropyridin-4-yl)-N,N-bis(methyl-d3)benzamide] | 0.0513 µM |
| [2H]C([2H])([2H])N(C(=O)c1ccc(C2CCN([C@@H](C)c3cc4c(-c5ccc(N)cn5)ccnc4n3C)CC2)cc1)C([2H])([2H])[2H] [Example 1af35, (S)-4-(1-(1-(4-(5-Aminopyridin-2-yl)-1-methyl-1H-pyrrolo[2,3-b]pyridin-2-yl)-ethyl)piperidin-4-yl)-N,N-bis(methyl-d3)benzamide] | 0.605 µM |
| [2H]C([2H])([2H])N(C(=O)c1ccc(C2CCN([C@@H](C)c3cc4c(-c5ccc(N)cn5)ccnc4n3C)CC2)c(C)c1)C([2H])([2H])[2H] [Example 1af41, (S)-4-(1-(1-(4-(5-Aminopyridin-2-yl)-1-methyl-1H-pyrrolo[2,3-b]pyridin-2-yl)ethyl)-piperidin-4-yl)-3-methyl-N,N-bis(methyl-d3)benzamide] | 3.3 µM |
| CC(=O)Nc1ccc(-c2ccnc3c2cc(CN2CCC(c4ccc(C(=O)N(C)C)cc4)CC2)n3C)cn1 [Example 1k2, 4-[1-[[4-(6-Acetamido-3-pyridyl)-1-methyl-pyrrolo[2,3-b]pyridin-2-yl]methyl]-4-piperidyl]-N,N-dimethyl-benzamide] | 0.064 µM |
| CN(C)C(=O)c1ccc(C2CCN(Cc3cc4c(-c5cnc(N)c(C(=O)O)c5)ccnc4n3C)CC2)cc1 [Example 1k9, 2-Amino-5-[2-[[4-[4-(dimethylcarbamoyl)phenyl]-1-piperidyl]methyl]-1-methyl-pyrrolo[2,3-b]pyridin-4-yl]pyridine-3-carboxylic acid] | 0.144 µM |
| [2H]C([2H])([2H])N(C(=O)c1ccc(C2CCN([C@H](C)c3cc4c(-c5ccc(N)nc5C#N)ccnc4n3C)CC2)c(C)c1)C([2H])([2H])[2H] [Example 1af38, (R)-4-(1-(1-(4-(6-amino-2-cyanopyridin-3-yl)-1-methyl-1H-pyrrolo[2,3-b]pyridin-2-yl)ethyl)-piperidin-4-yl)-3-methyl-N,N-bis(methyl-d3)benzamide] | 5.27 µM |
| Cc1cc(C(=O)N(C)C)ccc1C1=CCN([C@@H](C)c2cc3c(-c4ccc(N)cn4)ccnc3n2C)CC1 [Example 1af32, (S)-4-(1-(1-(4-(5-Aminopyridin-2-yl)-1-methyl-1H-pyrrolo[2,3-b]pyridin-2-yl)ethyl)-1,2,3,6-tetrahydropyridin-4-yl)-N,N,3-trimethylbenzamide] | 0.286 µM |
| CN(C)C(=O)c1ccc(C2CCN(Cc3cc4c(-c5ccc(N)nc5)ccnc4n3C)C(=O)C2)cc1 (single isomer, unassigned) [Example 1ae5] | 0.0464 µM |
| C[C@@H](c1cc2c(-c3ccc(N)nc3C#N)ccnc2n1C)N1CCC(c2ccc(C(=O)N(C)C)cc2)CC1 [Example 1af13, (S)-4-(1-(1-(4-(6-amino-2-cyanopyridin-3-yl)-1-methyl-1H-pyrrolo[2,3-b]pyridin-2-yl)ethyl)piperidin-4-yl)-N,N-dimethylbenzamide] | 0.691 µM |
| [2H]C([2H])([2H])N(C(=O)c1ccc(C2=CCN([C@@H](C)c3cc4c(-c5ccc(N)cn5)ccnc4n3C)CC2)c(C)c1)C([2H])([2H])[2H] [Example 1af31, (S)-4-(1-(1-(4-(5-aminopyridin-2-yl)-1-methyl-1H-pyrrolo[2,3-b]pyridin-2-yl)ethyl)-1,2,3,6-tetrahydropyridin-4-yl)-3-methyl-N,N-bis(methyl-d3)benzamide] | 0.169 µM |
| CN(C)C(=O)c1ccc(C2CCN(Cc3cc4c(-c5cnc(N)cc5C(F)(F)F)ccnc4n3C)CC2)cc1 [Example 1k27, 4-[1-[[4-[6-Amino-4-(trifluoromethyl)-3-pyridyl]-1-methyl-pyrrolo[2,3-b]pyridin-2-yl]methyl]-4-piperidyl]-N,N-dimethyl-benzamide] | 5.03 µM |
| [2H]C([2H])([2H])N(C(=O)c1ccc(C2CCN(Cc3cc4c(-c5ccc(N)nc5OC)ccnc4n3C)CC2)cc1)C([2H])([2H])[2H] [Example 1k23, 4-[1-[[4-(6-Amino-2-methoxy-3-pyridyl)-1-methyl-pyrrolo[2,3-b]pyridin-2-yl]methyl]-4-piperidyl]-N,N-bis(trideuteriomethyl)benzamide] | 0.0255 µM |
| Cc1cc(-c2ccnc3c2cc(CN2CCC(c4ccc(C(=O)N(C)C)cc4)CC2)n3C)c(C)nc1N [Example 1k31, 4-[1-[[4-(6-Amino-2,5-dimethyl-3-pyridyl)-1-methyl-pyrrolo[2,3-b]pyridin-2-yl]methyl]-4-piperidyl]-N,N-dimethyl-benzamide] | 0.0785 µM |
| C[C@H](c1cc2c(-c3ccc(N)nc3C#N)ccnc2n1C)N1CC=C(c2ccc(C(=O)N(C)C)cc2)CC1 [Example 1af23, (R)-4-(1-(1-(4-(6-amino-2-cyanopyridin-3-yl)-1-methyl-1H-pyrrolo[2,3-b]pyridin-2-yl)ethyl)-1,2,3,6-tetrahydropyridin-4-yl)-N,N-dimethylbenzamide] | 0.0452 µM |
| [2H]C([2H])([2H])N(C(=O)c1ccc(C2=CCN([C@@H](C)c3cc4c(-c5ccc(N)cn5)ccnc4n3C)CC2)cc1)C([2H])([2H])[2H] [Example 1af43, (S)-4-(1-(1-(4-(5-Aminopyridin-2-yl)-1-methyl-1H-pyrrolo[2,3-b]pyridin-2-yl)ethyl)-1,2,3,6-tetrahydropyridin-4-yl)-N,N-bis(methyl-d3)benzamide] | 2.95 µM |
